Measurements: patent publication US20140357662A1, “THIENO (2,3 - C) PYRAZOLES FOR USE AS POTASSIUM CHANNEL INHIBITORS” (XENTION LIMITED, priority 2011, published 2014)

The compounds below were run against T1, rat Kir3.1/3.4 (Rattus norvegicus, UniProt P48548+P63251) (assay: Kir3.1/3.4 Electrophysiology Method (manual whole-cell patch clamp)). Conditions: Human Embryonic Kidney 293 stably transfected with rat Kir3.1/3.4; inhibition of leak-subtracted current at -140 mV.
T1 construct: expressed in transfected cells; host or cells: HEK293 (Human Embryonic Kidney 293), stably transfected
T1 sequence (P63251 1-501): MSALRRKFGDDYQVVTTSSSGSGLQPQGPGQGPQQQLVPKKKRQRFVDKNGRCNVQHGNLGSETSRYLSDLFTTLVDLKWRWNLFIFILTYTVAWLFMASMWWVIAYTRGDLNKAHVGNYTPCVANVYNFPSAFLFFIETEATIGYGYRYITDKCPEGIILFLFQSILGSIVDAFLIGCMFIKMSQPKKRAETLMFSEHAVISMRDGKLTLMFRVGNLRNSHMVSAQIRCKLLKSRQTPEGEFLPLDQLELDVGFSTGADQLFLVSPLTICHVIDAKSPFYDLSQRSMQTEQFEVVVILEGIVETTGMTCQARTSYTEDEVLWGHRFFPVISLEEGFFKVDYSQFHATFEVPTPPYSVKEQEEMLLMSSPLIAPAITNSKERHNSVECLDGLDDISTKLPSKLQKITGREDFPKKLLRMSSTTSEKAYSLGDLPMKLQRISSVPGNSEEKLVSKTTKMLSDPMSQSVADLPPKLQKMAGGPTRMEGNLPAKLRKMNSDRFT
T1 sequence (P48548 1-419): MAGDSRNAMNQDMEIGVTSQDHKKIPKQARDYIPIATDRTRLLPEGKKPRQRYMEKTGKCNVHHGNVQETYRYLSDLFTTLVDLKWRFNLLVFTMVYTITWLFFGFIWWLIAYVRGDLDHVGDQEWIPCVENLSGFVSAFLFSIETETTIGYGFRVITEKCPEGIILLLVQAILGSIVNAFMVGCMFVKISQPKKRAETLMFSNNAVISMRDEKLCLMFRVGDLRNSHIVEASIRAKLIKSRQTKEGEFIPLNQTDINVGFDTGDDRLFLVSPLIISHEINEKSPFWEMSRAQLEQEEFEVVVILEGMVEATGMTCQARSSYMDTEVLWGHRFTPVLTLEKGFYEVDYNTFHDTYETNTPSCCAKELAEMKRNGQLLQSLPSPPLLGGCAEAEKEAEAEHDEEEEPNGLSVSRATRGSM
Format: cell-based
Procedure: Compound activity against the recombinant G-protein activated inward rectifier current encoded by the heterotetramer Kir3.1/3.4 was assessed using manual whole-cell patch technique. The heterotetramer forms the pore-forming channel that conducts the acetylcholine/adenosine-activated potassium current in the heart.
For whole-cell patch-clamp studies, cells (Human Embryonic Kidney 293 stably transfected with rat Kir3.1/3.4) were seeded onto glass coverslips before recordings were made. Cells were seeded in sterile 30 mm Petri dishes at a density to enable isolated cells to be selected for patch clamp experiments. The dishes were stored in a humidified, gassed (5% CO2) incubator at 37° C. until use.
Whole-cell patch-clamp recordings of membrane currents were made following gigaohm seal formation between the patch electrode and the cell using HEKA EPC-9/10 amplifiers controlled by Pulse Software (Ver8.5x/8.6x/8.7x, HEKA, Germany). Coverslips seeded with cells were placed in a recording chamber mounted on the stage of an inverted microscope. During the experiment, the cell of interest was continuously superfused with bather solution delivered via a cannula placed in close proximity to the cell to enable control of the extracellular solution environment. Only those cells with a current <−500 pA (current at −140 mV) were used for experiments. During experiments, series resistance was compensated by a minimum of 70%.
Electrophysiology voltage-step protocols and analysis of data were performed as follows. Data was sampled at 5 kHz, and filtered with a −3 dB bandwidth of 2.5 kHz. Cells were held at a voltage of −60 mV. Currents were evoked by a depolarising voltage step to +60 mV (100 ms) before a ramp-repolarisation (0.4 V·s^−1) to −140 mV (100 ms) before returning to −60 mV. The command waveform was repeatedly applied every 10 s throughout the experiment. Mean currents during 1-99% of the time at −140 mV were analysed using Pulsefit software (v8.x, HEKA, Germany). The voltage protocol was repeatedly applied to achieve a stable current baseline in bather before the test substance was superfused via the cannula in close proximity to the cell under investigation. The test substance was allowed to equilibrate during which time voltage protocol was repeatedly applied and recorded. On reaching steady-state inhibition, the cell was superfused with an identical bather solution containing zero external potassium chloride (replaced by equimolar NaCl). The identical current measurement was made in the absence of potassium to assess the passive leak at −140 mV. The leak current was subtracted from the control and steady-state drug current values. The percentage inhibition of the leak-subtracted current in the presence of test substance was calculated relative to the control leak-subtracted pre-drug value. Internal patch-pipette solution contained in mM: 110 KCl, 20 NaCl, 0.9 GTPγS, 5 Mg-ATP, 5 EGTA, 10 HEPES, pH7.2 corrected with KOH. The external superfusate composition in mM was: 150 (or 160) NaCl, 10 (or 0) KCl, 3 CaCl2, 1 MgCl, 10 HEPES, pH 7.4 corrected with NaOH.

Row | Compound | IC50 [nM]
1 | CS(=O)(=O)n1nc(N2CC3CC2CC3OCCN2CCCC2)c2c(-c3ccc(F)cc3)csc21 (stereo not shown) [Compound 16, 4-(4-fluorophenyl)-1-methylsulfonyl-3-[5-(2-pyrrolidin-1-ylethoxy)-2-azabicyclo[2.2.1]heptan-2-yl]thieno[2,3-c]pyrazole] | < 500
2 | c1ccc(-c2csc3[nH]nc(N4CCC(COCCN5CCCC5)CC4)c23)cc1 [Compound 1, 4-phenyl-3-[4-(2-pyrrolidin-1-ylethoxymethyl)-1-piperidyl]-1H-thieno[2,3-c]pyrazole] | < 500
3 | CC(=O)n1nc(N2CC3CC2CC3OCCN2CCCC2)c2c(-c3ccc(F)cc3)csc21 (stereo not shown) [Compound 15, 1-[4-(4-fluorophenyl)-3-[5-(2-pyrrolidin-1-ylethoxy)-2-azabicyclo[2.2.1]heptan-2-yl]thieno[2,3-c]pyrazol-1-yl]ethanone] | < 500
4 | CC(=O)n1nc(N2CC3CC2CC3OCCN2CCCC2)c2c(-c3ccccc3)csc21 (stereo not shown) [Compound 14, 1-[4-phenyl-3-[5-(2-pyrrolidin-1-ylethoxy)-2-azabicyclo[2.2.1]heptan-2-yl]thieno[2,3-c]pyrazol-1-yl]ethanone] | < 500
5 | Cn1nc(N2CCC(COCCN3CCCC3)CC2)c2c(-c3ccccc3)csc21 [Compound 21, 1-methyl-4-phenyl-3-[4-(2-pyrrolidin-1-ylethoxymethyl)-1-piperidyl]thieno[2,3-c]pyrazole] | < 500
6 | CC(=O)n1nc(N2CCC(COCCN3CCCC3)CC2)c2c(-c3ccccc3)csc21 [Compound 13, 1-[4-phenyl-3-[4-(2-pyrrolidin-1-ylethoxymethyl)-1-piperidyl]thieno[2,3-c]pyrazol-1-yl]ethanone] | < 500
7 | c1ccc(-c2csc3[nH]nc(N4CC5CC4CC5OCCN4CCCC4)c23)cc1 (stereo not shown) [Compound 4, 4-phenyl-3-[5-(2-pyrrolidin-1-ylethoxy)-2-azabicyclo[2.2.1]heptan-2-yl]-1H-thieno[2,3-c]pyrazole] | < 500
8 | CS(=O)(=O)n1nc(N2CCC(COCCN3CCCC3)CC2)c2c(-c3ccccc3)csc21 [Compound 20, 1-methylsulfonyl-4-phenyl-3-[4-(2-pyrrolidin-1-ylethoxymethyl)-1-piperidyl]thieno[2,3-c]pyrazole] | < 500
9 | Brc1sc2[nH]nc(N3CC4CC3CC4OCCN3CCCC3)c2c1-c1ccccc1 (stereo not shown) [Compound 2, 5-bromo-4-phenyl-3-[5-(2-pyrrolidin-1-ylethoxy)-2-azabicyclo[2.2.1]heptan-2-yl]-1H-thieno[2,3-c]pyrazole] | < 500
10 | N#Cc1sc2[nH]nc(N3CCC(COCCN4CCCC4)CC3)c2c1-c1ccccc1 [Compound 3, 4-phenyl-3-[4-(2-pyrrolidin-1-ylethoxymethyl)-1-piperidyl]-1H-thieno[2,3-c]pyrazole-5-carbonitrile] | < 500
